According to the NIST ThermoML archive (doi:10.1021/je060271a):
Several values for one entry are separate records, joined by “and”; a condition that tells them apart may be missing. Equal entries are not always repeated.

Settings: 343.15 K, Liquid, Vibrating tube method

CCCCCCC(=O)OCC(COC(=O)CCCCCC)(COC(=O)CCCCCC)COC(=O)CCCCCC [pentaerythritol tetraheptanoate]
Settings	mass density
4113.8 kPa	943.7 kg/m3
4138.8 kPa	943.6 kg/m3
4164 kPa	943.7 kg/m3
4194.7 kPa	943.7 kg/m3
4220.3 kPa	943.6 kg/m3
4246.6 kPa	943.7 kg/m3
4273.8 kPa	943.8 kg/m3
4305 kPa	943.9 kg/m3
4331.3 kPa	943.9 kg/m3
4358.7 kPa	944 kg/m3
4390.2 kPa	943.8 kg/m3
4413.2 kPa	943.8 kg/m3
4545.2 kPa	943.9 kg/m3
4545.5 kPa	944.1 kg/m3
4546 kPa	943.9 kg/m3
4546.2 kPa	944 kg/m3
4546.5 kPa	944 kg/m3
4547.2 kPa	944 kg/m3
4547.4 kPa	944.1 kg/m3
4547.6 kPa	944 kg/m3
4547.8 kPa	944.1 kg/m3
4547.9 kPa	944.1 kg/m3
4548.3 kPa	944 kg/m3 and 944.1 kg/m3
4548.4 kPa	944 kg/m3 and 943.9 kg/m3
4548.6 kPa	944 kg/m3
4548.8 kPa	944 kg/m3 and 944.1 kg/m3
4549 kPa	943.9 kg/m3 and 944 kg/m3
4549.1 kPa	944.2 kg/m3 and 944.1 kg/m3 and 944 kg/m3
4549.3 kPa	944 kg/m3 and 944.1 kg/m3 and 943.9 kg/m3
4549.5 kPa	944 kg/m3
4549.7 kPa	944.1 kg/m3 and 944 kg/m3
4549.8 kPa	944.1 kg/m3
4549.9 kPa	944.1 kg/m3 and 944 kg/m3
4550 kPa	944 kg/m3
4550.1 kPa	944 kg/m3 and 944.1 kg/m3
4550.2 kPa	944.1 kg/m3 and 944 kg/m3 and 943.9 kg/m3
4550.4 kPa	944 kg/m3
4550.5 kPa	944 kg/m3
4550.7 kPa	944.1 kg/m3
4550.9 kPa	944 kg/m3 and 944.2 kg/m3
4551 kPa	944 kg/m3 and 944.1 kg/m3
4551.2 kPa	944.1 kg/m3 [middle of 4 runs]
4551.4 kPa	944 kg/m3 and 944.1 kg/m3
4551.5 kPa	944 kg/m3
4551.7 kPa	944.1 kg/m3 and 944 kg/m3
4551.9 kPa	944 kg/m3 and 944.1 kg/m3
4552.1 kPa	944 kg/m3 and 944.1 kg/m3
4552.2 kPa	944.1 kg/m3 and 944 kg/m3 and 944.2 kg/m3
4552.3 kPa	944.1 kg/m3
4552.4 kPa	944 kg/m3 and 944.1 kg/m3
4552.6 kPa	944 kg/m3 and 944.1 kg/m3
4552.8 kPa	944.1 kg/m3 and 943.9 kg/m3 and 944 kg/m3
4553 kPa	944 kg/m3 and 943.9 kg/m3 and 944.1 kg/m3
4553.1 kPa	944.1 kg/m3 [middle of 4 runs]
4553.3 kPa	944 kg/m3 and 944.1 kg/m3
4553.5 kPa	944.1 kg/m3 and 944 kg/m3
4553.7 kPa	944 kg/m3 and 944.1 kg/m3
4553.8 kPa	944 kg/m3 and 944.1 kg/m3
4554 kPa	944 kg/m3 and 944.1 kg/m3
4554.2 kPa	944.1 kg/m3 and 944 kg/m3
4554.3 kPa	944 kg/m3
4554.5 kPa	944.1 kg/m3 and 944 kg/m3
4554.7 kPa	944.1 kg/m3 and 943.9 kg/m3
4554.9 kPa	944.2 kg/m3 and 944 kg/m3 and 943.9 kg/m3
4555 kPa	944 kg/m3 and 944.1 kg/m3
4555.2 kPa	944 kg/m3 and 944.1 kg/m3
4555.4 kPa	944.1 kg/m3 and 944 kg/m3 and 943.9 kg/m3
4555.5 kPa	944.2 kg/m3 and 944 kg/m3 and 944.1 kg/m3
4555.7 kPa	944 kg/m3
4555.9 kPa	944 kg/m3 and 944.1 kg/m3
4556.1 kPa	944 kg/m3
4556.2 kPa	944 kg/m3 and 944.1 kg/m3
4557.6 kPa	944 kg/m3
4559 kPa	944.1 kg/m3
4559.2 kPa	944 kg/m3 and 943.9 kg/m3
4559.3 kPa	943.9 kg/m3
4559.7 kPa	944.1 kg/m3 and 944.2 kg/m3
4559.9 kPa	944.1 kg/m3
4560 kPa	944.1 kg/m3
4560.9 kPa	944.1 kg/m3
4564.5 kPa	944 kg/m3
4567.8 kPa	944 kg/m3
4571.1 kPa	944.2 kg/m3
4574.9 kPa	944 kg/m3
4578.4 kPa	944.1 kg/m3
4581.7 kPa	944 kg/m3
4584.6 kPa	943.9 kg/m3
4588.4 kPa	944 kg/m3
4591.7 kPa	944.1 kg/m3
4595.2 kPa	944.1 kg/m3
4598.3 kPa	944.1 kg/m3
4602.3 kPa	944.1 kg/m3
4605.4 kPa	943.9 kg/m3
4608.7 kPa	944.1 kg/m3
4612.7 kPa	944.2 kg/m3
4616.3 kPa	944 kg/m3
4619.4 kPa	944.1 kg/m3
4622.7 kPa	944.1 kg/m3
4626.7 kPa	944.2 kg/m3
4630 kPa	944 kg/m3
4633.1 kPa	944.1 kg/m3
4637.3 kPa	944.2 kg/m3
4640.7 kPa	944.1 kg/m3
4644 kPa	944.1 kg/m3
4647.3 kPa	944.1 kg/m3
4651.3 kPa	944 kg/m3
4654.6 kPa	944.1 kg/m3
4658.4 kPa	944 kg/m3
4662 kPa	944.1 kg/m3
4665.5 kPa	944.2 kg/m3
4669.3 kPa	944.1 kg/m3
